Residues, ends and D or L forms follow the SMILES beside them.
Columns and labels:
[1] = system: isolated mouse liver mitochondria; test: Example 11: mitochondrial respiration and membrane potential
Protocol: Isolated mouse liver mitochondria will be incubated with 100 pM of SPN10(s) (with or without aromatic-cationic peptides) or peptide conjugates, and oxygen consumption will be measured. […] Mitochondrial membrane potential will be measured using TMRM. It is anticipated that addition of mitochondria will result in immediate quenching of the TMRM signal, which will be readily reversible by the addition of FCCP, indicating mitochondrial depolarization. It is anticipated that the addition of Ca^2+ (150 μM) will result in immediate mitochondrial depolarization followed by progressive loss of quenching indicative of MPT.

N2A cells = test: Example 24: lipid peroxidation (4-HNE Michael adducts); format: cell-based; settings: t-BHP 1 mM, 3 hours
Protocol: Lipid peroxidation will be evaluated by measuring 4-HNE Michael adducts. 4-HNE is one of the major products of the peroxidation of membrane polyunsaturated fatty acids. N2A cells will be seeded on a glass dish 1 day before t-BHP treatment (1 mM, 3 hours, 37° C., 5% CO2) alone or in the presence of peptide conjugates (10^−8 to 10^−10 M), aromatic-cationic peptides (an equivalent molar dose of aromatic-cationic peptide based on the concentration of the aromatic-cationic peptide administered in the peptide conjugate treatment group); SPN10(s) (an equivalent molar dose of SPN10 based on the concentration of SPN10 administered in the peptide conjugate treatment group); or SPN10(s) in combination with aromatic-cationic peptides (e.g., an equivalent molar dose of SPN10 based on the concentration of SPN10 administered in the peptide conjugate treatment group and an equivalent molar dose of aromatic-cationic peptide based on the concentration of aromatic-cationic peptide administered in the peptide conjugate treatment group). Cells will be washed twice with PBS, fixed 30 minutes with 4% paraformaldehyde in PBS at RT, and washed 3 additional times with PBS. […] Cells will be mounted in Vectashield and imaged using a Zeiss fluorescence microscope using an excitation wavelength of 460±20 nm and a longpass filter of 505 nm for emission.

[2] = system: Islet cells isolated from mouse pancreas; test: Example 29: viability of isolated pancreatic islet cells; format: cell-based; settings: added to isolation buffers
Source text: Islet cells will be isolated from mouse pancreas according to standard procedures. Peptide conjugates, aromatic-cationic peptides, SPN10(s) with or without aromatic-cationic peptides or control vehicle will be added to isolation buffers used throughout the isolation procedure. Mitochondrial membrane potential will be measured using TMRM (red) and visualized by confocal microscopy, and apoptosis will be measured by flow cytometry using annexin V and necrosis by propidium iodide.

mitochondrial aconitase = test: Example 53: mitochondrial aconitase activity in burn injury; settings: mouse, in vivo
Source text: Murine subjects will be subjected to burn injury or sham and administered peptide conjugates, aromatic-cationic peptides, SPN10(s) alone or in combination with aromatic-cationic peptides, or control vehicle as described above. Mitochondria will be isolated from burned and control tissues and mitochondrial aconitase activity assessed using a commercially available kit.

## N=C(N)NCCC[C@H](NC(=O)[C@@H](N)Cc1c[nH]c2ccccc12)C(=O)N[C@@H](Cc1c[nH]c2ccccc12)C(=O)N[C@@H](CCCCN)C(N)=O [SPN10, H-L-Trp-L-Arg-L-Trp-L-Lys-NH2] (H-WRWK-NH2)
[1]; 100 pM
  respiratory ratio (state 3/state 4): 6.2 versus 6.0
[1]; even at 200 μM
  mitochondrial depolarization or MPT by the compound alone (TMRM): will not cause mitochondrial depolarization or MPT
N2A cells
  lipid peroxidation in cells treated with t-BHP: inhibit lipid peroxidation
[2]
  apoptosis of islet cells (annexin V): reduce apoptosis
  islet cell viability (mitochondrial membrane potential): increase islet cell viability
Mitochondrial aconitase
  mitochondrial aconitase activity after burn injury: reduce mitochondrial aconitase activity to sham control levels
